By IC50 is commonly meant the point on the concentration scale where inhibition reaches its midpoint.

We go through 16 molecules from ChEMBL document CHEMBL5528043, “Development of Potent Mcl-1 Inhibitors: Structural Investigations on Macrocycles Originating from a DNA-Encoded Chemical Library Screen” (J Med Chem, 2024).

Molecules are shown by their SMILES. ≈ marks a conversion by molar mass, not a printed value.

Data set [1] deals with Induced myeloid leukemia cell differentiation protein Mcl-1 (Homo sapiens, UniProt Q07820). Description: Inhibition of Mcl-1 (172-327) (unknown origin) using BIOTIN-AHXGQVGRQLAIIGDDINR-amide peptide by TR-FRET based BAK peptide displacement assay. (TR-FRET usually uses a lanthanide donor and a delayed reading to cut background.)
Sequence of Induced myeloid leukemia cell differentiation protein Mcl-1 (Q07820 whole entry): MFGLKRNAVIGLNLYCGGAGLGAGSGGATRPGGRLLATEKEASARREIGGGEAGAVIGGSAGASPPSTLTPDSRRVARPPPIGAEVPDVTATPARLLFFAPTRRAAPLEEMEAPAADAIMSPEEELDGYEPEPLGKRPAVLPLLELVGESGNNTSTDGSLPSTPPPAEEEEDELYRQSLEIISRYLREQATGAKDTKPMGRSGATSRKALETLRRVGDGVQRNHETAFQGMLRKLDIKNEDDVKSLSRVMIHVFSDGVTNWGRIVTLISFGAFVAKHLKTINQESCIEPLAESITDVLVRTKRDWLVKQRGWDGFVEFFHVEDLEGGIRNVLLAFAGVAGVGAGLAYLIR
Data set [2] has as its system NCI-H929. Description: Cytotoxicity against human NCI-H929 cells assessed as cell viability measured after 72 hrs incubation by CellTiterGlo assay. It counts as functional, cell-based. The note with it: NCI-H929, 72 h. (ATP-based viability assays read luminescence as a measure of living cells.)
A short description of data set [3]: Kinetic solubility of the compound in pH 7.4 buffer measured after 24 hrs by LC-UV analysis. The note with it: read-out: Kinetic_solubility. Format: physicochemical.

Turning to `CCOc1cc(C#Cc2cc(C)cc(C)c2)cc2c1OCC(=O)N[C@H]1CC[C@H](CC1)CC(=O)N[C@@H](c1ccccc1)C(=O)N[C@H](Cc1ccccc1)C(=O)NCCc1ccc(cc1)OC2`, the results for the IC50 in data set [1] and in data set [2] were 14000 nM and 3400 nM, respectively.
In data set [1], `CCOc1cccc2c1OCC(=O)N[C@H]1CC[C@H](CC1)CC(=O)N[C@@H]([C@@H](C)OC)C(=O)N[C@H](Cc1ccccc1)C(=O)NCCc1ccc(cc1)OC2` returned an IC50 of 678 nM. Also, the solubility kinetic at 24 h in data set [3] was found to be 25 µM (≈ 18.2 µg/mL).
Consider `CCOc1cccc2c1OCC(=O)N[C@H]1CC[C@H](CC1)CC(=O)N[C@@H](c1ccnc(OC)c1)C(=O)N[C@H](Cc1ccccc1)C(=O)NCCc1ccc(cc1)OC2`, for which the IC50 in data set [1] worked out at 34 nM. Moreover, the solubility kinetic at 24 h in data set [3] was 3 µM (≈ 2.33 µg/mL).
Turning to `CCOc1cc(-c2ccc(C(F)(F)F)cc2)cc2c1OCC(=O)N[C@H]1CC[C@H](CC1)CC(=O)N[C@@H](c1ccccc1)C(=O)N[C@H](Cc1ccccc1)C(=O)NCCc1ccc(cc1)OC2`, the IC50 in data set [1] came out at 39000 nM; in data set [2] it was 7100 nM.
`CCOc1cccc2c1OCC(=O)N[C@H]1CC[C@H](CC1)CC(=O)N[C@@H](Cc1ccc(O)cc1)C(=O)N[C@H](Cc1ccccc1)C(=O)NCCc1ccc(cc1)OC2`: the IC50 in data set [1] is 1370 nM. For the same molecule, the solubility kinetic at 24 h in data set [3] came out at 37 µM (≈ 28.7 µg/mL).
Turning to `CCOc1cc(Oc2cccc(C(F)(F)F)c2)cc2c1OCC(=O)N[C@H]1CC[C@H](CC1)CC(=O)N[C@@H](c1ccccc1)C(=O)N[C@H](Cc1ccccc1)C(=O)NCCc1ccc(cc1)OC2`, the IC50 in data set [1] was 12000 nM; in data set [2] it was 180 nM.
Turning to `CCOc1cc(C#Cc2ccc(C(C)(C)C)cc2)cc2c1OCC(=O)N[C@H]1CC[C@H](CC1)CC(=O)N[C@@H](c1ccccc1)C(=O)N[C@H](Cc1ccccc1)C(=O)NCCc1ccc(cc1)OC2`, the IC50 is 1800 nM in data set [1] and 9900 nM in data set [2].
For the molecule `CCOc1cccc2c1OCC(=O)N[C@H]1CC[C@H](CC1)CC(=O)N[C@@](C)(c1ccccc1)C(=O)N[C@H](Cc1ccccc1)C(=O)NCCc1ccc(cc1)OC2`, the IC50 in data set [1] was 1430 nM. Besides, the solubility kinetic at 24 h in data set [3] stood at 4 µM (≈ 3.04 µg/mL).
For `CCOc1cccc2c1OCC(=O)N[C@H]1CC[C@H](CC1)CC(=O)N[C@@H](Cc1c[nH]cn1)C(=O)N[C@H](Cc1ccccc1)C(=O)NCCc1ccc(cc1)OC2`, in that order: 7350 nM and 69 µM (≈ 51.8 µg/mL).
Take `CCOc1cc(C#Cc2ccc(OC)cc2)cc2c1OCC(=O)N[C@H]1CC[C@H](CC1)CC(=O)N[C@@H](c1ccccc1)C(=O)N[C@H](Cc1ccccc1)C(=O)NCCc1ccc(cc1)OC2`: the results for the IC50 in data set [1] and in data set [2] were 8000 nM and 1400 nM, respectively.
For `CCOc1cc(Oc2cccc3ccccc23)cc2c1OCC(=O)N[C@H]1CC[C@H](CC1)CC(=O)N[C@@H](c1ccccc1)C(=O)N[C@H](Cc1ccccc1)C(=O)NCCc1ccc(cc1)OC2`, the IC50 is 12000 nM in data set [1] and 170 nM in data set [2].
As to `CCOc1cccc2c1OCC(=O)N[C@H]1CC[C@H](CC1)CC(=O)N[C@@H](c1cccnc1)C(=O)N[C@H](Cc1ccccc1)C(=O)NCCc1ccc(cc1)OC2`, the IC50 in data set [1] was found to be 43 nM. In addition, the solubility kinetic at 24 h in data set [3] amounted to 6 µM (≈ 4.49 µg/mL).
`CCOc1cccc2c1OCC(=O)N[C@H]1CC[C@H](CC1)CC(=O)N[C@@H](CCS(C)(=O)=O)C(=O)N[C@H](Cc1ccccc1)C(=O)NCCc1ccc(cc1)OC2`: in data set [1], the IC50 was 80 nM. The solubility kinetic at 24 h in data set [3] came to 5 µM (≈ 3.88 µg/mL).
Take `CCOc1cccc2c1OCC(=O)N[C@H]1CC[C@H](CC1)CC(=O)N[C@@H](CCSC)C(=O)N[C@H](Cc1ccccc1)C(=O)NCCc1ccc(cc1)OC2`: in data set [1], the IC50 is 212 nM. Further, the solubility kinetic at 24 h in data set [3] came to 9 µM (≈ 6.7 µg/mL).
In turn, `CCOc1cccc2c1OCC(=O)N[C@H]1CC[C@H](CC1)CC(=O)N[C@@H](Cc1c[nH]c3ccccc13)C(=O)N[C@H](Cc1ccccc1)C(=O)NCCc1ccc(cc1)OC2` came in with an IC50 in data set [1] of 1440 nM. In addition, in data set [3], the solubility kinetic at 24 h turned out to be 1 µM (≈ 0.8 µg/mL).
For the molecule `CCOc1cccc2c1OCC(=O)N[C@H]1CC[C@H](CC1)CC(=O)N[C@@H](CC(C)C)C(=O)N[C@H](CC1CCCCC1)C(=O)N[C@H](C(=O)NC)Cc1ccc(cc1)OC2`, the IC50 in data set [1] worked out at 98 nM.
